# From patent publication US12252524B2, “GIP/GLP1 co-agonist compounds” (Eli Lilly and Company, priority 2018, dated 2025)
# Numbered stars: 1 amine (or outer) side, 2 acyl side, 3 side chain; on linkers, the order of the positions; unused ones are H or OH. Square brackets hold non-standard residues; d marks the D form. Side chains are listed from the residue outwards. Peptide text beside a SMILES is read from it. * marks the point of attachment. C20 diacid = O=C(O)CCCCCCCCCCCCCCCCCCC(=O)*; γGlu = O=C(O)[C@H](CCC(=O)[*:2])N[*:1]; αMeL = CC(C)C[C@](C)(N)C(=O)O; Orn = NCCC[C@H](N)C(=O)O; Dap = NC[C@H](N)C(=O)O; AEEA = NCCOCCOCC(=O)O; Aib = CC(C)(N)C(=O)O
# Key:
# [1] = biological target: human GLP-1 receptor (GLP-1R) (Homo sapiens, UniProt P43220); assay: cAMP pharmacological functional assay in presence of casein, hGLP-1R; assay type: cell-based; conditions: HEK293 cells expressing hGLP-1R, 0.1% Casein, geometric mean; read-out: hGLP1R cAMP Rel EC50 nM (SEM, n)
# Chain of human GLP-1 receptor (GLP-1R) (P43220 24-463): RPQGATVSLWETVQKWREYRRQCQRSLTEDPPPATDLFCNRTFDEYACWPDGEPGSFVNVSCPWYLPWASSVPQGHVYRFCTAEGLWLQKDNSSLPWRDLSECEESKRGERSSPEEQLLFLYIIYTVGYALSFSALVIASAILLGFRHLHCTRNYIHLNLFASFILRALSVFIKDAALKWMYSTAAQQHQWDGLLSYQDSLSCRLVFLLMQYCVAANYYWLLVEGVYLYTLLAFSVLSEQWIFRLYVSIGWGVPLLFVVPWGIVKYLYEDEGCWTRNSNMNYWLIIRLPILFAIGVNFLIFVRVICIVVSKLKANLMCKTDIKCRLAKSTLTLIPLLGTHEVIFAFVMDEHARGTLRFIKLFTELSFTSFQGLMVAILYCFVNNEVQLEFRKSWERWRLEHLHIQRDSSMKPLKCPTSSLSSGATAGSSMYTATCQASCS
# [2] = biological target: T1, gastric inhibitory peptide receptor (GIPR) (Homo sapiens, UniProt P48546); assay: cAMP pharmacological functional assay in presence of casein, hGIPR; assay type: cell-based; conditions: HEK293 cells expressing hGIPR, 0.1% Casein, geometric mean; read-out: hGIPR cAMP Rel EC50 nM (SEM, n)
# T1 sequence (P48546 22-466): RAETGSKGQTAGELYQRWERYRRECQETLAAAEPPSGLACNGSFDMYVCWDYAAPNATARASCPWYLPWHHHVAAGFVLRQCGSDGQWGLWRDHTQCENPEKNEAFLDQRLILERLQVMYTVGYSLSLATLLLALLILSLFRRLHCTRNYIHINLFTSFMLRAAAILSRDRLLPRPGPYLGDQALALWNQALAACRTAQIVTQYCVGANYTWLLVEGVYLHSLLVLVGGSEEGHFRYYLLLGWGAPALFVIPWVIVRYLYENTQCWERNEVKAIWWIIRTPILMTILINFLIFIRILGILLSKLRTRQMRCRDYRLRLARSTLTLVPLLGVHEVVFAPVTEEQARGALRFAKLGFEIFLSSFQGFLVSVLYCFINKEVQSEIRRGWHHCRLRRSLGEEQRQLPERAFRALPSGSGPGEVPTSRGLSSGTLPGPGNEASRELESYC
# human GLP-1R [3] = biological target: T2, human GLP-1R (Homo sapiens, UniProt P43220); assay: GLP-1R CHO cell β-arrestin recruitment assay; assay type: cell-based; parameters: host or cells: CHO-K1 PathHunter cells, assay-ready frozen; conditions: for EC50: CHO-K1 cells, PathHunter β-arrestin-2 recruitment, 0.1% casein, read-out: hGLP1R B-Arrestin2 Rel EC50 uM (SEM, n); for hGLP1R B-Arrestin2 % Top: normalized to GLP-1 maximum control
# T2 sequence (P43220 24-463): as the sequence (P43220 24-463) above
# In short: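 Peptide-induced β-arrestin-2 recruitment measured by enzyme-fragment complementation luminescence after 90 min at 37 °C plus 60 min detection at RT.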
# human GLP-1R [4] = biological target: T2, human GLP-1R; assay: GLP-1R HEK293 cell membrane [35S]GTPγS binding assay; assay type: biochemical; parameters: expressed in transfected cells; host or cells: HEK293 cells expressing human GLP-1R; membranes; conditions: HEK293 cell membranes expressing human GLP-1R, [35S]GTPγS binding; read-out: hGLP1R GTPgS Rel EC50 nM (SEM, n)
# In short: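 Agonist-driven Gαs activation read as [35S]GTPγS ([…]) binding to receptor-expressing HEK293 membranes, 30 min at room temperature, pH 7.4. Detection by anti-Gαs immunocapture on scintillation beads; EC50 derived from four-parameter logistic concentration-response fit.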
Structure (SMILES),EC50 [1] [nM],EC50 [2] [nM],EC50 (human GLP-1R [3]) [µM],hGLP1R B-Arrestin2 % Top (human GLP-1R [3]) [%],EC50 (human GLP-1R [4]) [nM]
CC[C@H](C)[C@H](NC(=O)[C@H](CC(C)C)NC(=O)[C@H](Cc1ccc(O)cc1)NC(=O)[C@H](CCC(=O)O)NC(=O)[C@@H](NC(=O)[C@H](Cc1ccccc1)NC(=O)[C@H](CC(=O)O)NC(=O)C(C)(C)NC(=O)[C@H](CCC(N)=O)NC(=O)[C@H](C)NC(=O)[C@H](CCCCNC(=O)COCCOCCNC(=O)COCCOCCNC(=O)CC[C@H](NC(=O)CCCCCCCCCCCCCCCCCCC(=O)O)C(=O)O)NC(=O)[C@H](CCCN)NC(=O)[C@H](CC(=O)O)NC(=O)[C@H](CC(C)C)NC(=O)[C@](C)(CC(C)C)NC(=O)[C@@H](NC(=O)[C@H](CO)NC(=O)[C@H](Cc1ccc(O)cc1)NC(=O)[C@H](CC(=O)O)NC(=O)[C@H](CO)NC(=O)[C@@H](NC(=O)[C@H](Cc1ccccc1)NC(=O)[C@@H](NC(=O)CNC(=O)[C@H](CCC(=O)O)NC(=O)C(C)(C)NC(=O)[C@H](N)Cc1ccc(O)cc1)[C@@H](C)O)[C@@H](C)O)[C@@H](C)CC)[C@@H](C)CC)C(=O)N[C@@H](C)C(=O)NCC(=O)NCC(=O)N1CCC[C@H]1C(=O)N[C@@H](CO)C(=O)N[C@@H](CO)C(=O)NCC(=O)N[C@@H](C)C(=O)N1CCC[C@H]1C(=O)N1CCC[C@H]1C(=O)N1CCC[C@H]1C(=O)N[C@@H](CO)C(N)=O [Example 369] (H-[dY][Aib]EGTFTSDYSI[αMeL]LD[Orn]K([AEEA-AEEA-γGlu-C20 diacid])AQ[Aib]DFIEYLIAGGPSSGAPPPS-NH2; N-terminus assumed),0.101,0.166,0.0414,19.9,0.381
CC[C@H](C)[C@H](NC(=O)[C@H](CC(C)C)NC(=O)[C@H](Cc1ccc(O)cc1)NC(=O)[C@H](CCC(=O)O)NC(=O)[C@@H](NC(=O)[C@H](Cc1ccccc1)NC(=O)[C@H](CCC(=O)O)NC(=O)C(C)(C)NC(=O)[C@H](CCC(N)=O)NC(=O)[C@H](C)NC(=O)[C@H](CCCCNC(=O)COCCOCCNC(=O)COCCOCCNC(=O)CC[C@H](NC(=O)CCCCCCCCCCCCCCCCCCC(=O)O)C(=O)O)NC(=O)[C@H](CN)NC(=O)[C@H](CC(=O)O)NC(=O)[C@H](CC(C)C)NC(=O)[C@](C)(CC(C)C)NC(=O)[C@@H](NC(=O)[C@H](CO)NC(=O)[C@H](Cc1ccc(O)cc1)NC(=O)[C@H](CC(=O)O)NC(=O)[C@H](CO)NC(=O)[C@@H](NC(=O)[C@H](Cc1ccccc1)NC(=O)[C@@H](NC(=O)CNC(=O)[C@H](CCC(=O)O)NC(=O)C(C)(C)NC(=O)[C@H](N)Cc1ccc(O)cc1)[C@@H](C)O)[C@@H](C)O)[C@@H](C)CC)[C@@H](C)CC)C(=O)N[C@@H](C)C(=O)NCC(=O)NCC(=O)N1CCC[C@H]1C(=O)N[C@@H](CO)C(=O)N[C@@H](CO)C(=O)NCC(=O)N[C@@H](C)C(=O)N1CCC[C@H]1C(=O)N1CCC[C@H]1C(=O)N1CCC[C@H]1C(=O)N[C@@H](CO)C(N)=O [Example 351] (H-[dY][Aib]EGTFTSDYSI[αMeL]LD[Dap]K([AEEA-AEEA-γGlu-C20 diacid])AQ[Aib]EFIEYLIAGGPSSGAPPPS-NH2),0.149,0.298,0.0196,23.5,0.563
CC[C@H](C)[C@H](NC(=O)[C@H](CC(C)C)NC(=O)[C@H](Cc1ccc(O)cc1)NC(=O)[C@H](CCC(=O)O)NC(=O)[C@@H](NC(=O)[C@H](Cc1ccccc1)NC(=O)[C@H](CCC(=O)O)NC(=O)C(C)(C)NC(=O)[C@H](CCC(N)=O)NC(=O)[C@H](C)NC(=O)[C@H](CCCCNC(=O)COCCOCCNC(=O)COCCOCCNC(=O)CC[C@H](NC(=O)CCCCCCCCCCCCCCCCCCC(=O)O)C(=O)O)NC(=O)[C@H](CCCN)NC(=O)[C@H](CC(=O)O)NC(=O)[C@H](CC(C)C)NC(=O)[C@](C)(CC(C)C)NC(=O)[C@@H](NC(=O)[C@H](CO)NC(=O)[C@H](Cc1ccc(O)cc1)NC(=O)[C@H](CC(=O)O)NC(=O)[C@H](CO)NC(=O)[C@@H](NC(=O)[C@H](Cc1ccccc1)NC(=O)[C@@H](NC(=O)CNC(=O)[C@H](CCC(=O)O)NC(=O)C(C)(C)NC(=O)[C@H](N)Cc1ccc(O)cc1)[C@@H](C)O)[C@@H](C)O)[C@@H](C)CC)[C@@H](C)CC)C(=O)N[C@@H](C)C(=O)NCC(=O)NCC(=O)N1CCC[C@H]1C(=O)N[C@@H](CO)C(=O)N[C@@H](CO)C(=O)NCC(N)=O [Example 370] (H-[dY][Aib]EGTFTSDYSI[αMeL]LD[Orn]K([AEEA-AEEA-γGlu-C20 diacid])AQ[Aib]EFIEYLIAGGPSSG-NH2),0.186,0.117,0.0099,23.0,0.428
CC[C@H](C)[C@H](NC(=O)[C@H](CC(C)C)NC(=O)[C@H](Cc1ccc(O)cc1)NC(=O)[C@H](CCC(=O)O)NC(=O)[C@@H](NC(=O)[C@H](Cc1ccccc1)NC(=O)[C@H](CCC(=O)O)NC(=O)C(C)(C)NC(=O)[C@H](CCC(N)=O)NC(=O)[C@H](C)NC(=O)[C@H](CCCCNC(=O)COCCOCCNC(=O)CC[C@H](NC(=O)CCCCCCCCCCCCCCCCCCC(=O)O)C(=O)O)NC(=O)[C@H](CCCN)NC(=O)[C@H](CC(=O)O)NC(=O)[C@H](CC(C)C)NC(=O)[C@](C)(CC(C)C)NC(=O)[C@@H](NC(=O)[C@H](CO)NC(=O)[C@H](Cc1ccc(O)cc1)NC(=O)[C@H](CC(=O)O)NC(=O)[C@H](CO)NC(=O)[C@@H](NC(=O)[C@H](Cc1ccccc1)NC(=O)[C@@H](NC(=O)CNC(=O)[C@H](CCC(=O)O)NC(=O)C(C)(C)NC(=O)[C@H](N)Cc1ccc(O)cc1)[C@@H](C)O)[C@@H](C)O)[C@@H](C)CC)[C@@H](C)CC)C(=O)N[C@@H](C)C(=O)NCC(=O)NCC(=O)N1CCC[C@H]1C(=O)N[C@@H](CO)C(=O)N[C@@H](CO)C(=O)NCC(=O)N[C@@H](C)C(=O)N1CCC[C@H]1C(=O)N1CCC[C@H]1C(=O)N1CCC[C@H]1C(=O)N[C@@H](CO)C(N)=O [Example 371] (H-[dY][Aib]EGTFTSDYSI[αMeL]LD[Orn]K([AEEA-γGlu-C20 diacid])AQ[Aib]EFIEYLIAGGPSSGAPPPS-NH2),0.132,0.135,0.0142,21.7,0.27
CC[C@H](C)[C@H](NC(=O)[C@H](CC(C)C)NC(=O)[C@H](Cc1ccc(O)cc1)NC(=O)[C@H](CCC(=O)O)NC(=O)[C@@H](NC(=O)[C@H](Cc1ccccc1)NC(=O)[C@H](C)NC(=O)C(C)(C)NC(=O)[C@H](CCC(N)=O)NC(=O)[C@H](C)NC(=O)[C@H](CCCCNC(=O)COCCOCCNC(=O)COCCOCCNC(=O)CC[C@H](NC(=O)CCCCCCCCCCCCCCCCCCC(=O)O)C(=O)O)NC(=O)[C@H](CN)NC(=O)[C@H](CC(=O)O)NC(=O)[C@H](CC(C)C)NC(=O)[C@](C)(CC(C)C)NC(=O)[C@@H](NC(=O)[C@H](CO)NC(=O)[C@H](Cc1ccc(O)cc1)NC(=O)[C@H](CC(=O)O)NC(=O)[C@H](CO)NC(=O)[C@@H](NC(=O)[C@H](Cc1ccccc1)NC(=O)[C@@H](NC(=O)CNC(=O)[C@H](CCC(=O)O)NC(=O)C(C)(C)NC(=O)[C@H](N)Cc1ccc(O)cc1)[C@@H](C)O)[C@@H](C)O)[C@@H](C)CC)[C@@H](C)CC)C(=O)N[C@@H](C)C(=O)NCC(=O)NCC(=O)N1CCC[C@H]1C(=O)N[C@@H](CO)C(=O)N[C@@H](CO)C(=O)NCC(=O)N[C@@H](C)C(=O)N1CCC[C@H]1C(=O)N1CCC[C@H]1C(=O)N1CCC[C@H]1C(=O)N[C@@H](CO)C(N)=O [Example 348] (H-[dY][Aib]EGTFTSDYSI[αMeL]LD[Dap]K([AEEA-AEEA-γGlu-C20 diacid])AQ[Aib]AFIEYLIAGGPSSGAPPPS-NH2),0.113,0.193,0.00346,19.8,0.66
